Data as given in article PMC10681895, “Dasatinib anhydrate containing oral formulation improves variability and bioavailability in humans” (Leukemia, 2023).
Where two headings read alike, the source gives them in different places. Blank lines part the entries; values can stand above or below the compound they belong to.

Key:
[1] = cited from earlier work
[2] = Safety and tolerability, drug-drug interaction study (adverse events, CTC grade); format: in vivo, human; conditions: after dasatinib alone
Procedure: Safety was evaluated through assessment of adverse events, clinical and laboratory test results, physical examination, and concomitant medication usage.

[3] = Intrinsic dissolution rate, rotation disk (Sirius inForm), acetate/phosphate buffer pH 4.5; conditions: for intrinsic dissolution rate: acetate buffer pH 4.5, 37 °C, 100 rpm
[4] = set-up: method as in PMID 19395585; conditions: cited from earlier work
[5] = Bioavailability of anhydrous vs monohydrate form of dasatinib by gastric pH (data on file); format: in vivo, human
[6] = Drug-drug interaction study with omeprazole (staggered approach), pharmacokinetics; conditions: human, plasma, oral
Procedure: The DDI study was a single-sequence, 2-period, open-label study to investigate the effects of an oral proton pump inhibitor (PPI) omeprazole (Helicid 40 mg capsules, Zentiva, k.s., Czech Republic) administered QD for 5 days on the pharmacokinetics (PK) of T when ingested 2 h prior to the last omeprazole dose (‘staggered approach’). All subjects received T alone in the first period and T under pre-treatment with omeprazole in the second period.
Subjects fasted for at least 10 h prior to dosing and no food was provided until 4 h after the dose, after which a standardized breakfast was served. […]
The plasma concentration-time profiles and pharmacokinetic parameters determined for dasatinib included maximum plasma concentration (Cmax), time to reach the maximum plasma concentration (Tmax), area under the plasma concentration-time curve from time zero to the time of the last quantifiable concentration (AUC0-t, measured by linear trapezoid method), AUC from time zero to infinity (AUC0-inf), terminal elimination half-life (thalf). The pharmacokinetic parameters were determined by non-compartmental methods using Phoenix WinNonlin, version 8.1 (Certara, USA).
Arithmetic mean and standard deviation were summarized for the main pharmacokinetic parameters. For Tmax, median and range were determined. […]

[7] = system: non-small-cell lung carcinoma; set-up: method as in PMID 25246385; conditions: cited from earlier work
[8] = set-up: method as in PMID 15032311, PMID 15568890; conditions: oral; cited from earlier work
[9] = without PPI or H2-receptor antagonists

SMILES: Cc1nc(Nc2ncc(C(=O)Nc3c(C)cccc3Cl)s2)cc(N2CCN(CCO)CC2)n1 [dasatinib]
decrease of AUC ([1]; co-administration of dexamethasone, according to the label): approximately 25%
AUC decrease ([1]; co-administration with antacids): ~ 55%
prevention of dasatinib AUC decrease induced by rabeprazole ([1]; co-administration with betaine hydrochloride): 78%
AUC decrease ([1]; co-administration with famotidine): ~ 60%
reduction in dasatinib bioavailability ([1]; dasatinib administered 22 h after the last dose of the PPI): > 40%
Chills, number of adverse effects ([2]; CTC Grade 1): 1
Fever, number of adverse effects ([2]; CTC Grade 1): 0
Headache, number of adverse effects ([2]; CTC Grade 1): 1
Nausea, number of adverse effects ([2]; CTC Grade 1): 3
Neck exanthema, number of adverse effects ([2]; CTC Grade 1): 0
Palmar exanthema, number of adverse effects ([2]; CTC Grade 1): 0
Vomiting, number of adverse effects ([2]; CTC Grade 1): 1
Weakness, number of adverse effects ([2]; CTC Grade 1): 2
Chills, number of adverse effects ([2]; CTC Grade 2): 0
Fever, number of adverse effects ([2]; CTC Grade 2): 1
Headache, number of adverse effects ([2]; CTC Grade 2): 6
Nausea, number of adverse effects ([2]; CTC Grade 2): 1
Neck exanthema, number of adverse effects ([2]; CTC Grade 2): 1
Palmar exanthema, number of adverse effects ([2]; CTC Grade 2): 1
Vomiting, number of adverse effects ([2]; CTC Grade 2): 0
Weakness, number of adverse effects ([2]; CTC Grade 2): 0

intrinsic dissolution rate ([3]; listed as monohydrate form): 19 mcg/min/cm^2
SMILES: Cc1nc(Nc2ncc(C(=O)Nc3c(C)cccc3Cl)s2)cc(N2CCN(CCO)CC2)n1 [dasatinib monohydrate, dasatinib]
solubility ([4]; pH 2.6): 18400 µg/mL
solubility ([4]; pH 4.28): 205 µg/mL
solubility ([4]; pH 6.99): < 1 µg/mL

fold higher intrinsic dissolution rate compared to monohydrate form ([3]; acetate buffer pH 4.5): more than 80 fold
intrinsic dissolution rate ([3]; listed as Anhydrous polymorph of dasatinib): 1606 mcg/min/cm^2
fold difference in aqueous solubility compared with monohydrate form ([3]; pH of 4.5): > 80 fold
increase of bioavailability compared with monohydrate form ([5]; normogastric population): approximately 20%
fold higher bioavailability compared with monohydrate form ([5]; subjects with gastric pH >4 (data on file)): about 3.5 fold
Tmax [6]: 1.25 h
Tmax ([6]; 110.6 mg): 0.83 h
SMILES: Cc1nc(Nc2ncc(C(=O)Nc3c(C)cccc3Cl)s2)cc(N2CCN(CCO)CC2)n1 [dasatinib anhydrate, dasatinib]

SMILES: C#Cc1cccc(Nc2ncnc3cc(OCCOC)c(OCCOC)cc23)c1 [erlotinib]
median progression free survival ([7]; with co-administration of PPI or H2-receptor antagonists, p < 0.001): 1.4 months
median overall survival ([7]; with co-administration of PPI or H2-receptor antagonists, p = 0.003): 12.9 months
median overall survival [7, 9]: 16.8 months
median progression free survival [7, 9]: 2.3 months

SMILES: O=C1NC(=O)C(c2ccccc2)(c2ccccc2)N1 [phenytoin]
absolute bioavailability [8]: > 90%
